Test results published in US20230339981A1, “KRAS G12D MODULATING COMPOUNDS” (priority 2022, published 2023).

Tests used:
AsPC-1 (KRAS G12D) cells = assay: 3D cell viability assay (spheroids, CellTiter-Glo 3D); assay type: cell-based; details: Homo sapiens, ASPC1, 96 h, AsPC-1 cells, 3D spheroids, 4 days
How it was run: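 AsPC-1 cells (1000/well) in DMEM with 10% FBS formed spheroids over 3 days at 37 °C in ultra-low attachment plates, then were treated with 1:3 serial dilutions for 4 days. Viability read by CellTiter-Glo 3D luminescence; EC50 as concentration giving 50% signal decrease, sigmoidal fit.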

GDP-loaded KRAS G12D = GDP-loaded KRAS G12D (Homo sapiens (Human), UniProt P01116, G12D); assay: KRAS G12D (GDP) biochemical assay (TR-FRET probe displacement); assay type: binding; details: 2 hours
Sequence of GDP-loaded KRAS G12D (P01116-2 other isoform, or with tags, fused parts or gaps G12D): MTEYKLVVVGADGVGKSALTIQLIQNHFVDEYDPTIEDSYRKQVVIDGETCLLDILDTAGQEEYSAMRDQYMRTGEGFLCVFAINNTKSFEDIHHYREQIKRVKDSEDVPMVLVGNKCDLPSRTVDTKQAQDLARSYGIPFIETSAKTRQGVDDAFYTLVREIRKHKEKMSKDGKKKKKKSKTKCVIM
How it was run: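 Compound pre-incubated 30 min with GDP-loaded KRAS G12D in 50 mM Hepes pH 7.4, 150 mM NaCl, 5 mM MgCl2, 0.005% Tween-20, then Eu-streptavidin and TR-FRET probe added. After 2 h at room temperature, TR-FRET ratio read; IC50 is 50% ratio decrease, sigmoidal fit.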

GP2D (KRAS G12D) cells = assay: 2D cell viability assay (CellTiter-Glo); assay type: cell-based; details: GP2d, 96 h, 4 days
How it was run: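 GP2D (KRAS G12D) cells, 1000/well in RPMI + 10% FBS, were plated onto compound (1:3 DMSO series) and grown 4 days at 37 °C, 5% CO2 in 2D. CellTiter-Glo luminescence was read; EC50 is the concentration giving 50% signal decrease, from sigmoidal fit.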

| SMILES | EC50 (AsPC-1 (KRAS G12D) cells) [nM] | IC50 (GDP-loaded KRAS G12D) [nM] | EC50 (GP2D (KRAS G12D) cells) [nM] |
| --- | --- | --- | --- |
| C#Cc1c(F)ccc2cc(O)cc(-c3nc4c5c(nc(OC[C@]67CC(=C)CN6C[C@H](F)C7)nc5c3F)N3C[C@H]5CC[C@H](N5)[C@H]3CO4)c12 [Example 13, 5-ethynyl-6-fluoro-4-((5aS,6S,9R)-1-fluoro-12-(((2R,7aR)-2-fluoro-6-methylenetetrahydro-1H-pyrrolizin-7a(5H)-yl)methoxy)-5a,6,7,8,9,10-hexahydro-5H-4-oxa-3,10a,11,13,14-pentaaza-6,9-methanonaphtho[1,8-ab]heptalen-2-yl)naphthalen-2-ol] | 17 | 0.4 | 2 |
| C#Cc1c(F)ccc2cc(O)cc(-c3nc4c5c(nc(OC[C@@]67CCCN6C[C@H](F)C7)nc5c3F)N3C[C@H]5CC[C@H](N5)[C@H]3CO4)c12 [Example 2, 5-ethynyl-6-fluoro-4-((5aS,6S,9R)-1-fluoro-12-(((2R,7aS)-2-fluorotetrahydro-1H-pyrrolizin-7a(5H)-yl)methoxy)-5a,6,7,8,9,1O-hexahydro-5H-4-oxa-3,10a,11,13,14-pentaaza-6,9-methanonaphtho[1,8-ab]heptalen-2-yl)naphthalen-2-ol] | 42 | 0.2 | 6 |
| Oc1cc(-c2nc3c4c(nc(OCC5(CN6CCC(OC(F)(F)F)CC6)CC5)nc4c2F)N2C[C@H]4CC[C@H](N4)[C@H]2CC3)c2c(OC(F)(F)F)c(F)ccc2c1 [Example 102, 6-fluoro-4-((5aR,6S,9R)-1-fluoro-12-((1-((4-(trifluoromethoxy)piperidin-1-yl)methyl)cyclopropyl)methoxy)-4,5,5a,6,7,8,9,10-octahydro-3,10a,11,13,14-pentaaza-6,9-methanonaphtho[1,8-ab]heptalen-2-yl)-5-(trifluoromethoxy)naphthalen-2-ol] | 680 | 3.3 | 39.5 |
| C#Cc1c(F)ccc2cc(O)cc(-c3nc4c5c(nc(OC[C@@]67CCCN6C[C@@]6(CC6(F)F)C7)nc5c3F)N3C[C@H]5CC[C@H](N5)[C@H]3CC4)c12 [Example 122, 4-((5aR,6S,9R)-12-(((1S,7a'S)-2,2-difluorodihydro-1′H,3′H-spiro[cyclopropane-1,2′-pyrrolizin]-7a′(5′H)-yl)methoxy)-1-fluoro-4,5,5a,6,7,8,9,10-octahydro-3,10a,11,13,14-pentaaza[6,9]methanonaphtho[1,8-ab]heptalen-2-yl)-5-ethynyl-6-fluoronaphthalen-2-ol] | 2.9 | < 0.1 | 0.1 |
| C#Cc1c(F)ccc2cccc(-c3nc4c5c(nc(OC[C@@]67CCCN6[C@H](CF)CC7)nc5c3F)N3C[C@H]5CC[C@H](N5)[C@H]3CC4)c12 [Example 166, (5aR,6S,9R)-2-(8-ethynyl-7-fluoronaphthalen-1-yl)-1-fluoro-12-(((3S,7aS)-3-(fluoromethyl)tetrahydro-1H-pyrrolizin-7a(5H)-yl)methoxy)-4,5,5a,6,7,8,9,10-octahydro-3,10a,11,13,14-pentaaza-6,9-methanonaphtho[1,8-ab]heptalene] | 110 | 0.3 | 3.5 |
| C#Cc1c(F)ccc2cc(O)cc(-c3nc4c5c(nc(OC[C@@]67CCCN6[C@H](CF)CC7)nc5c3F)N3C[C@H]5CC[C@H](N5)[C@H]3CC4)c12 [Example 165, 5-ethynyl-6-fluoro-4-((5aR,6S,9R)-1-fluoro-12-(((3S,7aS)-3-(fluoromethyl)tetrahydro-1H-pyrrolizin-7a(5H)-yl)methoxy)-4,5,5a,6,7,8,9,10-octahydro-3,10a,11,13,14-pentaaza-6,9-methanonaphtho[1,8-ab]heptalen-2-yl)naphthalen-2-ol] | 3.9 | < 0.1 | 0.7 |
